Here are results for 50 compounds from PMC11995724, “Antibiotic target discovery by integrated phenotypic and activity-based profiling of electrophilic fragments” (Cell chemical biology, 2025).

Each structure is given as a SMILES string.

This series can be described thus: in vitro. Conditions: human, hek293t cells.
On to `CC(Cl)C(=O)NC(=O)NCc1cccs1` (centres unmarked) [6-E05, 3-(2-chloropropanoyl)-1-[(thiophen-2-yl)methyl]urea], for which the viability at 48 h, 25 µM came to 106%.

For `N#CC(=Cc1c[nH]c2ccccc12)C(=O)Nc1cccc2ncccc12` [9-N08, 2-cyano-3-(1H-indol-3-yl)-N-(quinolin-5-yl)prop-2-enamide], the viability at 48 h, 25 µM is 101%.

On to `Cc1ccc(NC(=O)C(C#N)=Cc2ccc3c(c2)OCCO3)c(C)c1` [9-H03, 2-cyano-3-(2,3-dihydro-1,4-benzodioxin-6-yl)-N-(2,4-dimethylphenyl)prop-2-enamide], for which the viability at 48 h, 25 µM came to 107%. Regarding `CC(Cl)C(=O)Nc1ccccc1C(N)=O` (centres unmarked) [5-G05, 2-(2-chloropropanamido)benzamide], the viability at 48 h, 25 µM turned out to be 101%. As for `Cc1cc(C(=O)CCl)c(C)n1-c1ccc(C(C)(C)C)cc1` [10-N20, 1-[1-(4-tert-butylphenyl)-2,5-dimethyl-1H-pyrrol-3-yl]-2-chloroethan-1-one], the figure is 0.606%; as for `N#CC(=Cc1ccccc1Cl)C(=O)Nc1ccc(Cl)cc1` [8-B11, 3-(2-chlorophenyl)-N-(4-chlorophenyl)-2-cyanoprop-2-enamide], 113%. As for `C=CC(=O)NCc1cnoc1C` [3-C22, N-[(5-methyl-1,2-oxazol-4-yl)methyl]prop-2-enamide], the figure is 51.5%; as for `C=CC(=O)NC1CCCN(C2CCCCC2)C1=O` (centres unmarked) [3-O18, N-(1-cyclohexyl-2-oxopiperidin-3-yl)prop-2-enamide], 92.1%; as for `C=CC(=O)Nc1cnn(CCN2CCCC2=O)c1` [3-M18, N-{1-[2-(2-oxopyrrolidin-1-yl)ethyl]-1H-pyrazol-4-yl}prop-2-enamide], 90%. For the compound `CC(C)(C)c1ccc(CC(=O)CCl)cc1` [10-G19, 1-(4-tert-butylphenyl)-3-chloropropan-2-one], the viability at 48 h, 25 µM came out at 1.53%. As for `Cc1ccc(C=C(C#N)C(=O)Nc2c(Cl)cccc2Cl)o1` [9-N21, 2-cyano-N-(2,6-dichlorophenyl)-3-(5-methylfuran-2-yl)prop-2-enamide], the figure is 108%; as for `COc1ccc2ccccc2c1C=C(C#N)C(=O)NC1CCCCC1` [8-P18, 2-cyano-N-cyclohexyl-3-(2-methoxynaphthalen-1-yl)prop-2-enamide], 66.4%; as for `CC(Cl)C(=O)Nc1ncnc2[nH]cnc12` (centres unmarked) [6-I18, 2-chloro-N-(9H-purin-6-yl)propanamide], 100%. With `O=C(CCl)c1ccc(F)cc1F` [10-I18, 2-chloro-1-(2,4-difluorophenyl)ethan-1-one], the viability at 48 h, 25 µM was determined as 77.2%.

With `N#CC(=Cc1cc2ccccc2o1)C(=O)NCc1ccco1` [9-O08, 3-(1-benzofuran-2-yl)-2-cyano-N-[(furan-2-yl)methyl]prop-2-enamide], the viability at 48 h, 25 µM came to 114%.

Turning to `O=C(CCl)c1ccc2[nH]c(=O)[nH]c2c1` [10-I14, 5-(2-chloroacetyl)-2,3-dihydro-1H-1,3-benzodiazol-2-one], the viability at 48 h, 25 µM was 1.71%. As for `C=CC(=O)N1CCC(C(=O)N2CCCC(O)C2)(c2ccccc2)CC1` (centres unmarked) [2-P06, 1-[4-(3-hydroxypiperidine-1-carbonyl)-4-phenylpiperidin-1-yl]prop-2-en-1-one], the figure is 93.3%; as for `CCOC(=O)c1ccc(NC(=O)CCl)cc1` [4-E17, ethyl 4-(2-chloroacetamido)benzoate], 0.753%; as for `CC(Cl)C(=O)NC(C)(C)c1ccc(F)cc1F` (centres unmarked) [6-E21, 2-chloro-N-[2-(2,4-difluorophenyl)propan-2-yl]propanamide], 93.5%. As for `C=CC(=O)NC1(c2ccc(C(F)(F)F)cc2)CCCC1` [2-E04, N-{1-[4-(trifluoromethyl)phenyl]cyclopentyl}prop-2-enamide], the figure is 82.6%; as for `N#CC(=Cc1c[nH]c2ccccc12)C(=O)Nc1ccccn1` [9-B10, 2-cyano-3-(1H-indol-3-yl)-N-(pyridin-2-yl)prop-2-enamide], 111%. Then `C=CC(=O)N(CC)CC(=O)N1CCCC1c1ccc(F)cc1C` (centres unmarked) [2-F08, N-ethyl-N-{2-[2-(4-fluoro-2-methylphenyl)pyrrolidin-1-yl]-2-oxoethyl}prop-2-enamide], with 74.7%. As to `C=CC(=O)N1CCOC2(CCCC2)C1` [3-I11, 1-{6-oxa-9-azaspiro[4.5]decan-9-yl}prop-2-en-1-one], the viability at 48 h, 25 µM was determined as 44.3%. As for `C=CC(=O)N(C)CC(=O)N1CCN(c2nsc3ccccc23)CC1` [2-N10, N-{2-[4-(1,2-benzothiazol-3-yl)piperazin-1-yl]-2-oxoethyl}-N-methylprop-2-enamide], the figure is 1.45%; as for `Cn1nnc(CN(C(=O)CCl)C2CCCCCCC2)n1` [5-A16, 2-chloro-N-cyclooctyl-N-[(2-methyl-2H-1,2,3,4-tetrazol-5-yl)methyl]acetamide], 0.784%.

For `COc1ccc(C=C(C#N)C(=O)Nc2nccs2)cc1O` [8-G19, 2-cyano-3-(3-hydroxy-4-methoxyphenyl)-N-(1,3-thiazol-2-yl)prop-2-enamide], the viability at 48 h, 25 µM came to 85%. As for `Cc1cc(C)c(C=C(C#N)C(=O)Nc2nccs2)cc1C` [8-P21, 2-cyano-N-(1,3-thiazol-2-yl)-3-(2,4,5-trimethylphenyl)prop-2-enamide], the figure is 113%; as for `C=CC(=O)N1CCC(C(=O)NC(C)c2cccc(C(F)(F)F)c2)CC1` (centres unmarked) [3-G13, 1-(prop-2-enoyl)-N-{1-[3-(trifluoromethyl)phenyl]ethyl}piperidine-4-carboxamide], 40.6%; as for `CC(C)Oc1ccc2[nH]cc(C(=O)CCl)c2c1` [10-E03, 2-chloro-1-[5-(propan-2-yloxy)-1H-indol-3-yl]ethan-1-one], 0.825%. As for `COc1cc(S(=O)(=O)N2CCOCC2)ccc1NC(=O)CCl` [6-L12, 2-chloro-N-[2-methoxy-4-(morpholine-4-sulfonyl)phenyl]acetamide], the figure is 0.942%. As for `CC(Cl)C(=O)N1CCN(C(=O)c2ccc3ccccc3c2)CC1` (centres unmarked) [7-E07, 2-chloro-1-[4-(naphthalene-2-carbonyl)piperazin-1-yl]propan-1-one], the figure is 96.2%; as for `C=CC(=O)NCc1noc2c1CCCC2` [3-B20, N-[(4,5,6,7-tetrahydro-1,2-benzoxazol-3-yl)methyl]prop-2-enamide], 74.4%. Consider `C=CC(=O)N(CC)CC(=O)N1CCC(c2nncn2C)CC1` [2-L10, N-ethyl-N-{2-[4-(4-methyl-4H-1,2,4-triazol-3-yl)piperidin-1-yl]-2-oxoethyl}prop-2-enamide], for which the viability at 48 h, 25 µM was found to be 72.6%. Regarding `C=CC(=O)NC1CCS(=O)(=O)c2ccc(F)cc21` (centres unmarked) [2-J19, N-(6-fluoro-1,1-dioxo-3,4-dihydro-2H-1lambda6-benzothiopyran-4-yl)prop-2-enamide], the viability at 48 h, 25 µM was 55.4%. Regarding `C=CC(=O)NCc1nnnn1-c1ccc(F)cc1` [1-M22, N-{[1-(4-fluorophenyl)-1H-1,2,3,4-tetrazol-5-yl]methyl}prop-2-enamide], the viability at 48 h, 25 µM turned out to be 106%. Then `CCOc1cc(C=C(C#N)C(=O)N2CCCC2)cc(Cl)c1O` [8-M06, 3-(3-chloro-5-ethoxy-4-hydroxyphenyl)-2-(pyrrolidine-1-carbonyl)prop-2-enenitrile], with 92.1%; and `C=CC(=O)NCCC(=O)N1CCCC1c1cc(C)on1` (centres unmarked) [2-C12, N-{3-[2-(5-methyl-1,2-oxazol-3-yl)pyrrolidin-1-yl]-3-oxopropyl}prop-2-enamide], with 81.3%. Then `CC(Cl)C(=O)N1CCCC(NS(=O)(=O)c2cccc(F)c2)C1` (centres unmarked) [7-C13, N-[1-(2-chloropropanoyl)piperidin-3-yl]-3-fluorobenzene-1-sulfonamide], with 79.3%; and `N#CC(=Cc1ccc(C(F)(F)F)cc1)C(=O)Nc1ccccc1` [9-I04, 2-cyano-N-phenyl-3-[4-(trifluoromethyl)phenyl]prop-2-enamide], with 93.7%. For the compound `N#CC(=Cc1c(F)cccc1Cl)C(=O)Nc1ccc(C(=O)O)cc1` [9-P06, 4-[3-(2-chloro-6-fluorophenyl)-2-cyanoprop-2-enamido]benzoic acid], the viability at 48 h, 25 µM is 142%. Then `CC(Cl)C(=O)NC1CCc2nc(-c3cc(F)ccc3F)cn2C1` (centres unmarked) [7-K10, 2-chloro-N-[2-(2,5-difluorophenyl)-5H,6H,7H,8H-imidazo[1,2-a]pyridin-6-yl]propanamide], with 77.5%; and `CC(Cl)C(=O)N1CCN(S(=O)(=O)c2ccccc2)CC1` (centres unmarked) [6-B12, 1-[4-(benzenesulfonyl)piperazin-1-yl]-2-chloropropan-1-one], with 100%; and `CCCCNC(=O)C(C#N)=Cc1c(Cl)cccc1Cl` [9-J11, N-butyl-2-cyano-3-(2,6-dichlorophenyl)prop-2-enamide], with 25.1%. As to `C=CC(=O)NC[C@H]1CCCN1S(C)(=O)=O` [1-H07, N-{[(2R)-1-methanesulfonylpyrrolidin-2-yl]methyl}prop-2-enamide], the viability at 48 h, 25 µM turned out to be 99.1%. As for `N#CC(=Cc1ccccc1O)C(=O)Nc1cccc2ncccc12` [9-G04, 2-cyano-3-(2-hydroxyphenyl)-N-(quinolin-5-yl)prop-2-enamide], the figure is 123%; as for `C=CC(=O)N1CCC(O)(c2ccccc2)CC1` [1-E15, 1-(4-hydroxy-4-phenylpiperidin-1-yl)prop-2-en-1-one], 79.8%; as for `C=CC(=O)Nc1cccc(C(=O)C(C)(C)C)c1` [2-I18, N-[3-(2,2-dimethylpropanoyl)phenyl]prop-2-enamide], 105%. As for `CC(Cl)C(=O)c1ccc2c(c1)NC(=O)CO2` (centres unmarked) [10-P12, 6-(2-chloropropanoyl)-3,4-dihydro-2H-1,4-benzoxazin-3-one], the figure is 105%; as for `N#CC(=Cc1cc(F)ccc1F)C(=O)Nc1ccc2c(c1)OCCO2` [8-I10, 2-cyano-3-(2,5-difluorophenyl)-N-(2,3-dihydro-1,4-benzodioxin-6-yl)prop-2-enamide], 53.5%. As for `O=C(O)c1coc(C(=O)CCl)c1` [10-B07, 5-(2-chloroacetyl)furan-3-carboxylic acid], the figure is 107%.

The viability is a read-out of living cells in per cent, often relative to untreated cells.
